Experimental data as given in US8716296B2 (Ingenium Pharmaceuticals GmbH, priority 2007, dated 2014).

Key:
[1] = system: LPS induced mice; experiment: LPS in vivo assay, model of cytokine repression in vivo; set-up: species or system mice (strain C3HeB/FeJ); conditions: 10 or 30 mg/kg i.p. 30 min prior to LPS, blood 90 min after LPS, ELISA, versus vehicle
Protocol: For the LPS induced model of septic shock, mice receive an intraperitoneal (i.p.) injection of 30 μg bacterial Lipopolysaccharide (LPS; L2630 SIGMA) in saline. Said LPS-mediated initiation of the inflammatory signalling cascade results in increasing blood serum concentrations of cytokines such as e.g. TNFα, IL-6 and IL1β. Blood can be taken from these animals at defined time points. Thereafter, serum will be separated and the samples can be stored at −80° C. until cytokine concentrations are measured using commercial ELISA assays. (A L Moreira et al., Braz J Med Biol Res 1997; 30:1199-1207).
Wildtype mice (strain C3HeB/FeJ) (age, sex and weight matched) were injected with 30 μg LPS (SIGMA) intraperitoneally. 90 minutes after LPS administration these animals were anaesthetized with 0.1 m1/10 g bodyweight Ketamine-Rompun (50/20 mg/ml), and blood for serum preparation was taken via cardiac puncture.
Pharmacological treatment groups (n=4) of LPS mice received intraperitoneal (i. p.) injections of CDK-inhibiting compounds or the vehicle (negative control), respectively. In particular, compounds #1A and 16A were administered.
10 or 30 mg/kg (compound per bodyweight) of a CDK inhibitor, dissolved in 20% DMSO, 5% Tween 80, 10% Tris 1M pH8, 20% PEG400, 45% PBS was administered as a single dosage 30 min prior to LPS stimulation. Vehicle control was administered in the same manner.
90 minutes (min) after LPS stimulation, blood samples were taken from the mice. Previously, the 90 min time point had been identified as the peak of TNF alpha expression in this animal model by a time course experiment.
Blood samples (˜500 μl/animal) from the LPS animals were incubated on wet ice for 30 min after cardiac puncture. Afterwards the samples were centrifuged for 15 min at 13.000 rpm. Serum was separated from the clot and stored frozen at −80° C.
Serum concentrations of TNF alpha and IL6 within the samples were measured by using commercial ELISA Kits (Natutec) according to the manufacturers instructions.

[2] = system: LPS induced THP-1 macrophages; experiment: In vitro THP-1 assay, model of cytokine inhibition; assay type: cell-based, human; conditions: differentiated THP-1 cells, 60 min pre-incubation, LPS 4-48 h, ELISA, versus vehicle (DMSO)
Protocol: The human THP-1 cell line can be utilized as an in vitro model of cytokine expression as mediated by Lipopolysaccharide (LPS) or Tumor Necrosis Factorα [TNFα].
Monocytic THP-1 cells (ATCC; TIB-202) can be differentiated into macrophage-like cells expressing pro-inflammatory cytokines like TNFα, IL6 and IL1β upon induction with LPS or by TNFα (autocrine induction) itself.
THP-1 cells are grown in modified RPMI-1640 medium (ATCC, Cat. No. 30-2001) supplemented with 10% FCS and 1% Pen/Strep. For cytokine inhibition assays, cells are seeded at a density of 5×10^5 cells/ml into 6-well plates in standard growth medium supplemented with 100 ng/ml PMA (Sigma, P1585) to induce differentiation into macrophage-like cells. After 24 hours, the medium is replaced with standard growth medium (without PMA) and the cells are incubated for another 48 hours to complete differentiation.
After 72 h of differentiation, the medium is replaced with serum free growth medium, and CDK-inhibiting compounds as well as reference compounds such as positive and negative controls, each dissolved in DMSO are added at concentrations ranging from 0.5 to 5 μM (final concentration of DMSO in the well is 0.1%). Cells are incubated for 60 min with compounds prior to stimulation with 100 ng/ml LPS (Sigma, L2630) for another 4-48 hours. Supernatants are collected and assayed immediately for cytokine expression, e.g. for TNFα, IL-6 and IL-1b using commercially available sandwich ELISA assays (eBioscience, Cat. No 88-7346, 88-7066, 88-7010) or kept frozen at […] until evaluation.
Concentrations of TNFα, IL6 and IL1β within the cell culture supernatants are measured by using commercial ELISA Kits (eBioscience) according to the manufacturers instructions.
CDK-inhibitory compounds #1A, 16A, 20A, and 25A were administered to differentiated THP-1 cells in triplicates as described above (see section 2.). After 60 min of pre-incubation with test or reference compound (SB203580, a p38 inhibitor and BMS345541, an IKK-inhibitor) alone, cells were stimulated with LPS. After incubation for 4-48 h, supernatants were collected and ELISA based determinations of cytokine supernatant concentrations were performed as described in section 3, supra.

[3] = system: SNI mice; experiment: Spared nerve injury (SNI) model of chronic neuropathic pain, von Frey assay; assay type: in vivo, mice (strain C3HeB/FeJ); conditions: 30 mg/kg p.o., 30 min before measurement, day 107 post SNI, versus vehicle
Source text: As outlined above, the spared nerve injury (SNI) model (see FIG. 1) involves a lesion of two of the three terminal branches of the sciatic nerve (tibial and common peroneal nerves) of experimental animals, leaving the sural nerve intact. SNI results in mechanical and thermal allodynia in the non-injured sural nerve skin territory (Decosterd and Woolf, Pain 2000; 87:149-158. (2) Tsujino et al., Mol. Cel. Neurosci. 2000; 15:170-182).
Wildtype mice (strain C3HeB/FeJ) (age, sex and weight matched) were anesthetized with Hypnorm (0.315 mg/ml fentanyl citrate+10 mg/ml fluanisone; Janssen)/Hypnovel (5 mg/ml midazolam; Roche Applied Sciences)/water at a ratio of 1:1:2 at 4 μl/g prior to surgical preparation. […]
30 mg/kg of a CDK inhibitor, dissolved in 400 μl of 2% Hydroxprolylcellulose; 0.25% Lactic Acid (85% solution) was administered via per oral application 30 min prior to von Frey measurements (mechanical allodynia). […] Reflex nociceptive responses to mechanical stimulation were measured in a von Frey assay 30 min after each injection. […]
Mechanical thresholds of SNI mice were quantified using the up-down method based on Chaplan et al. (1994) and Malmberg and Basbaum (1998). […]

SMILES	IL6 protein concentration in the blood serum [1]	TNFα protein concentration in the blood serum [1]	IL6 protein concentration in the cell supernatant [2]	TNFα protein concentration in the cell supernatant [2]	paw withdrawal threshold to mechanical stimulation (von Frey) [3]
CCOc1ccccc1-c1cc(NC(=O)C2CCNCC2)ncn1 [Compound 1A, Piperidine-4-carboxylic acid [6-(2-ethoxy-phenyl)-pyrimidin-4-yl]-amide]	significant repressive effect	significant repressive effect	significant inhibitory effect	significant inhibitory effect	
COc1ccccc1-c1cc(NC(=O)C2CCCNC2)ncn1 (stereo not drawn) [Compound 16A, Piperidine-3-carboxylic acid [6-(2-methoxy-phenyl)-pyrimidin-4-yl]amide]	significant repressive effect	significant repressive effect	significant inhibitory effect	significant inhibitory effect	significant increase of threshold values
